According to patent publication US20120214821A1, “Lipidomic Biomarkers of Diabetes” (THE BROAD INSTITUTE, INC., priority 2011, published 2012):

Columns and labels:
[1] = tested on: plasma TAGs; settings: 20 non-diabetic individuals, after four doses of metformin 500 mg over two days (FIG. 6C)
Experimental: (§1) Pharmacologic studies were performed as follows. […] After a washout period of 6 days, subjects received metformin 500 mg twice daily for two days in order to reduce hepatic gluconeogenesis, and then underwent a 75 g OGTT in the presence of metformin. […] From the first 164 subjects completing the protocol, 20 participants were selected who represented both high and low ends of the HOMA-IR range.
(§2) OGTT causes an acute rise in plasma glucose, which then triggers a rise in insulin.
(§3) After a washout period of 6 days, these 20 individuals were then administered four doses of metformin (500 mg) over two days. Although chronic metformin use decreases insulin resistance, its acute effect is to decrease hepatic glucose output, and as a result, lower plasma insulin (10).

[2] = 20 non-diabetic individuals, after four doses of metformin 500 mg over two days; baseline 95 mg/dL; p=0.022
Experimental: as §1, §2, §3

## CN(C)C(=N)N=C(N)N [metformin]
[1]
  TAG response (change of plasma TAGs by carbon number and double bond content): an increase in TAGs of lower carbon number and double bond content, and a decrease in TAGs of higher carbon number and double bond content
[2]
  mean plasma glucose: 86 mg/dL
